Measurements: article PMC8488277, “Permeability Data of Organosulfur Garlic Compounds Estimated by Immobilized Artificial Membrane Chromatography: Correlation Across Several Biological Barriers” (Frontiers in Chemistry, 2021)
Like-named read-outs stand apart in the source and are kept apart here.

What was measured:
[1] = IAM-HPLC chromatographic capacity factor (log k' IAM); assay type: physicochemical; details: IAM.PC.MG 12 µm column; isocratic ACN/0.035 M phosphate buffer pH 6.8 (30:70 v/v), 0.5 ml/min; k'=(Tr–T0)/T0; mean of 2–4 determinations
Description: Chromatographic analysis was performed using a Shimadzu LC 20A chromatograph coupled to a diode array detector, operated at a range of 210–260 nm, depending on the analyzed compound. A biomimetic commercially available column was used in all experiments: IAM. PC.MG12 µm (150 × 4.6 mm) was purchased from Regis Chemical Company (Morton Grove, IL).
OSC separation conditions under IAM-HPLC were adapted from [Luco et al. (2003]) and [Barbato et al. (1998]), with modifications. The chromatographic mode consisted in an isocratic elution used as the mobile phase ACN/0.035 M phosphate buffer −pH 6.8− (30:70 (v/v)) at 0.5 ml min^−1. The column dead time (T0) was estimated by ascorbic acid retention time which was measured at 210 nm. The obtained retention data were used to calculate the chromatographic parameter corresponding to the capacity factor k’ as follows: k’ = (Tr–T0)/T0. All capacity factors given represent the mean of 2–4 determinations of each sample solution.
For this study, we considered 28 phytochemical compounds containing sulfur-based groups. […] Most of these compounds are garlic-derived substances with bioactive functions. […] We chose them because of their bioactive functionality and their similar metabolism within the plants and human body. Each analytical standard stock solution was prepared in the mobile phase at concentrations ranging from 100 to 800 µg ml^−1, depending on the solubility of the compound and their DAD detector response. Peak identification in samples was carried out by comparing retention times with reference standards.

[2] = cited from earlier work
[3] = parameters: method as in Torres-Palazzolo et al. (2018); details: ref Torres-Palazzolo et al. (2018); cited from earlier work
[4] = parameters: method as in Egen-Schwind et al., 1992; details: ref Egen-Schwind et al., 1992, cited from earlier work; for lipophilicity (relative, in words): 1,3- vs 1,2-vinyldithiin; for elimination / tissue accumulation: serum, kidney, fat tissue

Molecule	Log (k'IAM) [1]	other results
C=CCSSSCC=C [Diallyl Trisulfide, diallyl trisulfide]	0.781	cellular permeability (in words) ([2]; not told): high cellular permeability
C=CCSS/C=C\C[S+]([O-])CC=C (stereo not drawn) [Z-Ajoene]	0.015	–
C=CCS[S+]([O-])CC=C (stereo not drawn) [Allicin, diallyl thiosulfinate]	−0.409	permeation through the intestine [3]: less than 5%; cellular permeability (in words) ([2]; ref Rahman, 2007): can easily permeate cell membranes of phospholipids bilayers; metabolism (in words) ([2]; ref Rahman, 2007): rapidly metabolized and transformed into other active compounds
C=CC1SC=CCS1 (stereo not drawn) [2-vinyldithiin, 2-Vinyl-4H-1,3-dithiine]	0.237	permeation through the intestine [3]: less than 5%; lipophilicity (relative, in words) [4]: less lipophilic; elimination / tissue accumulation [4]: rapidly eliminated from serum, the kidney, and fat tissue
CCCSSSC [Methyl Propyl Trisulfide]	0.810	–
C=CCSC [Allyl methyl sulfide, allyl methyl sulfide]	−1.021	–
C[S+]([O-])C[C@H](N)C(=O)O (single isomer, unassigned; (+)) [Methiin, (+)-S-methyl-L-cysteine sulfoxide]	−1.922	–
CCSSCC [Ethyl disulfide]	0.420	–
CSSC [Dimethyl disulfide, dimethyl disulfide]	−0.017	–
CCSCC [Ethyl sulfide]	−0.099	–
CC=C[S+]([O-])C[C@H](N)C(=O)O (stereo in doubt) [Isoalliin, (+)-S-trans-1-propenyl-L-cysteine sulfoxide]	−0.734	–
S-allyl-L-cysteine	−1.102	cellular permeability (in words) ([2]; ref Rahman, 2007): high cellular permeability
C=CCN=C=S [Allyl isothiocyanate]	0.118	–
S=C=Nc1ccccc1 [Phenyl isothiocyanate]	0.746	–
C=CCS [Allyl mercaptan]	−0.197	–
S=C=NCc1ccccc1 [Benzyl isothiocyanate]	0.571	–
C=CCSCC=C [Diallyl sulfide, diallyl sulfide]	0.222	permeation through the intestine [3]: less than 5%
C[S+]([O-])/C=C/CCN=C=S (stereo not drawn) [Sulforaphene, S-sulforaphene]	−0.521	–
c1coc(CSSCc2ccco2)c1 [Furfuryl disulfide, furfuryl disulfide]	0.713	–
C=CC1CC=CSS1 (stereo not drawn) [1,2-vinyldithiin]	–	lipophilicity (relative, in words) [4]: more lipophilic; elimination / tissue accumulation [4]: showed a tendency to accumulate in fat tissues
CCCSSCCC [Propyl disulfide]	0.913	–
S-propyl-L-cysteine	−1.645	–
S=C=NCCc1ccccc1 [Phenethyl isothiocyanate]	0.663	–
C=CCSS/C=C/C[S+]([O-])CC=C (stereo not drawn) [E-Ajoene]	0.022	–
S-methyl-L-cysteine	−1.322	–
OCc1c[nH]c2ccccc12 [Indole-3-carbinol, indole-3-carbinol]	−0.204	–
C=CCSSCC=C [Diallyl disulfide, diallyl disulfide]	0.554	cellular permeability (in words) ([2]; ref Rahman, 2007): high cellular permeability
C[S+]([O-])CCCCN=C=S (stereo not drawn) [Sulforaphane, sulforaphane]	−0.514	–
